Data: patent publication EP3807270B1, “NOVEL HETEROARYL HETEROCYCLYL COMPOUNDS FOR THE TREATMENT OF AUTOIMMUNE DISEASE” (F. Hoffmann-La Roche AG, priority 2018, dated 2019)
One block for each molecule: values may come before it.

Key:
[1] = Human microsome stability assay; type: in vitro ADME; conditions: 1 µM test compound, 0.5 mg/mL liver microsomal protein, 37 °C
Protocol: The human microsomal stability assay is used for early assessment of metabolic stability of a test compound in human liver microsomes.
Human liver microsomes (Cat.NO.: 452117, Corning, USA;Cat.NO.:H2610, Xenotech, USA) were preincubated with test compound for 10 minutes at 37 °C in 100 mM potassium phosphate buffer, pH 7.4. The reactions were initiated by adding NADPH regenerating system. The final incubation mixtures contained 1 µM test compound, 0.5 mg/mL liver microsomal protein, 1 mM MgClz, 1 mM NADP, 1 unit/mL isocitric dehydrogenase and 6 mM isocitric acid in 100 mM potassium phosphate buffer, pH 7.4. After incubation times of 0, 3, 6, 9, 15 and 30 minutes at 37 °C, 300 µL of cold acetonitrile (including internal standard) was added to 100 µL incubation mixture to terminate the reaction. Following precipitation and centrifugation, the amount of compound remaining in the samples were determined by LC-MS/MS. Controls of no NADPH regenerating system at zero and 30 minutes were also prepared and analyzed. […] Table 6. Human liver microsome stability of the compounds of present invention

CYP2D6 = target: T1, CYP2D6 (Homo sapiens, UniProt P10635); test: CYP inhibition assay in human liver microsome; type: in vitro ADME; conditions: human liver microsomes, probe dextromethorphan, 10µM test compound, dextromethorphan substrate, <0: not or weak inhibitor, read-out: CYP 2D6 inhibition %@10µM
T1 construct: tissue BD-Gentest 452117; host or cells: human liver microsomes
Protocol: This is a high throughput screening assay used for assessment of reversible inhibition of CYP2D6 activity of test compounds in human liver microsome (HLM) in early discovery stage. Table 4. Chemicals and materials used in the CYP inhibition assay
10 mM DMSO stock solutions of test compounds were diluted in DMSO to generate 2 mM intermediate stock solution. 250 nL of intermediate stock solution were transferred in duplicate into 3 separate 384 well microtitre plates (assay-ready plates). A mixture of HLM and each substrate was made up. 45 µL of HLM substrate mix was then transferred to each well of an assay ready plate and mixed. The negative (solvent) and positive control (standard inhibitor for CYP 2D6) were included in each assay ready plate. The assay ready plate was warmed to 37 °C in an incubator over 10 minutes. 5 µL pre-warmed NADPH regenerating system was added to each incubation well to start the reaction. Final incubation volume was 50 µL. The assay plate then was placed back in the 37 °C incubator. After 10-minute incubation, incubates were quenched by addition of 50 µL 100% acetonitrile containing internal standards (20 ng/mL D3-Dextrorphan). The supernatants were collected for RapidFire/MS/MS analysis.
RapidFire online solid phase extraction/sample injection system (Agilent) coupled with API4000 triple quadrupole mass spectrometer (AB Sciex) were used for sample analysis. The mobile phase composed of acetonitrile and water supplemented with 0.1% formic acid. A C4 solid phase extraction cartridge is used for sample separation. MS detection is achieved in positive ion MRM mode.
Peak areas for substrate, metabolite and internal standard are determined using the RapidFire integrator software (version 3.6.12009.12296). Peak area ratios (PAR) of metabolite and internal standard (stable-labelled metabolite) are then calculated. The measurement window for each experiment is then defined: • PAR (0% activity)= average PAR for all incubations containing concentrated inhibitor; • Par (100% activity)= average PAR for all incubations containing no inhibitor (DMSO controls); • % Activity (test inhibitor) • =[PAR(test inhibitor)-PAR(0% activity)]/[PAR(100% activity)-PAR(0% activity)]; • % Inhibition (test inhibitor)=100-% Activity (test inhibitor).

hTLR7 = target: T2, hTLR7 (Homo sapiens, UniProt Q9NYK1); design: host or cells: HEK; conditions: data disclosed in US20150105370; read-out: HEK/hTLR7 IC50; cited from earlier work
T2 sequence (Q9NYK1 27-1049): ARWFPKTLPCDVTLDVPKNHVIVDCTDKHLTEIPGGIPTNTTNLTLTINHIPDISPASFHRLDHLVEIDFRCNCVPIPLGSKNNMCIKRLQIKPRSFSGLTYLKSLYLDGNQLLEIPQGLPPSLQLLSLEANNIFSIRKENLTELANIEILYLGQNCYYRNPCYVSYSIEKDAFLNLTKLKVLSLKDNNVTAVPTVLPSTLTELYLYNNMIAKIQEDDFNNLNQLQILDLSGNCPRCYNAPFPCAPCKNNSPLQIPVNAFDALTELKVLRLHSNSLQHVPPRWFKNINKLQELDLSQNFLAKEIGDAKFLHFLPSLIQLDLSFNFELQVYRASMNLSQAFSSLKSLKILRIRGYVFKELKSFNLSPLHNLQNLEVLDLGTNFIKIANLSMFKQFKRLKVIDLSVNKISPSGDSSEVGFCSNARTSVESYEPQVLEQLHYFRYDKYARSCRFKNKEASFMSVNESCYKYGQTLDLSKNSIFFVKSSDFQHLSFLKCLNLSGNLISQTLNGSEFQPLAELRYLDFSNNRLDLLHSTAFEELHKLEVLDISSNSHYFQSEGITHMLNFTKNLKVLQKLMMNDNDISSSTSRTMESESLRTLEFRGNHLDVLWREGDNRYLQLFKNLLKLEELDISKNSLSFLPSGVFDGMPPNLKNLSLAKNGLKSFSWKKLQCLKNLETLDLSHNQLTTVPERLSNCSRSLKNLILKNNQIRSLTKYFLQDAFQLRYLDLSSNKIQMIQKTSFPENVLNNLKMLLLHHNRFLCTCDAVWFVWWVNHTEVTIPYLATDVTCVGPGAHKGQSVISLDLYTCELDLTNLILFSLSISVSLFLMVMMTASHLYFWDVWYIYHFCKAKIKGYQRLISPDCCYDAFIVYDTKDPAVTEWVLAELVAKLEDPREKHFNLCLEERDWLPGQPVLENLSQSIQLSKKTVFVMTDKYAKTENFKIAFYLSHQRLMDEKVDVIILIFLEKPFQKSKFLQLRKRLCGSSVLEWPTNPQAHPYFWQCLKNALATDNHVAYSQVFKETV

hTLR9 = target: T3, hTLR9 (Homo sapiens, UniProt Q9NR96); design: host or cells: HEK; conditions: data disclosed in US20150105370; read-out: HEK/hTLR9 IC50; cited from earlier work
T3 sequence (Q9NR96 26-1032): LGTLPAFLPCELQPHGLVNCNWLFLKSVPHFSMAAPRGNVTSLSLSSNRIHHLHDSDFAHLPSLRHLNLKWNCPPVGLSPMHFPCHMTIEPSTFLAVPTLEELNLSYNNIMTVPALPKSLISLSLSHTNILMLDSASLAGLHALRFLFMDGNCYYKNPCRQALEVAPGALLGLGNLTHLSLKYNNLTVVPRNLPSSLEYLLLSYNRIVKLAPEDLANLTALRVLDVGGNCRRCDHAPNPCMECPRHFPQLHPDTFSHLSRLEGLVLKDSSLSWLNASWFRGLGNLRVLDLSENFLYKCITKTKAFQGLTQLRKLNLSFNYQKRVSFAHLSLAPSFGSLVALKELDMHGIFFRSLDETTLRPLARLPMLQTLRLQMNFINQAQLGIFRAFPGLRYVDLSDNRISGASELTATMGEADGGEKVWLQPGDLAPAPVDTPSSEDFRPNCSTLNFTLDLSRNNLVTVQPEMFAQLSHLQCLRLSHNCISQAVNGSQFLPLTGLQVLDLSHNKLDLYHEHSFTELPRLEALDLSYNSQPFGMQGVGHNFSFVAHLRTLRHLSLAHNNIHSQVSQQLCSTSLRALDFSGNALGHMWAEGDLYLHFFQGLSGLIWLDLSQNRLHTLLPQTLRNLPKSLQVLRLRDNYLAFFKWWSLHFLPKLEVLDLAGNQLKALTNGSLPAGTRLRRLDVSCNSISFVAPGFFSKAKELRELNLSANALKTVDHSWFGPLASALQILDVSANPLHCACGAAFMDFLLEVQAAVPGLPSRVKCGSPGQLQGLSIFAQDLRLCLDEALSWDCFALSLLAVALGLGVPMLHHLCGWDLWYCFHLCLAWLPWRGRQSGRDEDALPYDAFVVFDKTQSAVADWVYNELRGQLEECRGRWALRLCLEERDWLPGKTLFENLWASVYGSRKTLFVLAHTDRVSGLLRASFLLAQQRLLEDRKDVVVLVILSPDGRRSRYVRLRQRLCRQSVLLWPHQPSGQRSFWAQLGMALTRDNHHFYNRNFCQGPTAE

T1 sequence (P10635 whole entry): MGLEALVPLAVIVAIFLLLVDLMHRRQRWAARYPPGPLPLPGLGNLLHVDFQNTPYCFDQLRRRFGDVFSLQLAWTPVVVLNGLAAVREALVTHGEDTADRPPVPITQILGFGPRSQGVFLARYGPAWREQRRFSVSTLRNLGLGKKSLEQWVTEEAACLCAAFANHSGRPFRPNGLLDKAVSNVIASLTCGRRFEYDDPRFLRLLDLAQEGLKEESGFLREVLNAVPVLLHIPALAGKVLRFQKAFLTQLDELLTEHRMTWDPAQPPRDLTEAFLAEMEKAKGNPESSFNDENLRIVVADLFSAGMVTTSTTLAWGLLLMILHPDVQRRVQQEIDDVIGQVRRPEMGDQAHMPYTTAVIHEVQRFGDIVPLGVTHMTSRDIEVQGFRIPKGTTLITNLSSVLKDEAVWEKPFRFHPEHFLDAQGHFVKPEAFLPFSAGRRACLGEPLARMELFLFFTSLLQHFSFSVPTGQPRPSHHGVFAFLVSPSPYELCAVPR

- Clearance of Human microsome [1]: 7.28 mL/min/kg
SMILES: C[C@@H]1CN(c2ccc(C#N)c3ncnn23)C[C@H](CN2CCN(c3cnc4c(c3)CNCC4)CC2)O1 [Example 27, 5-[(2R,6S)-2-methyl-6-[[4-(5,6,7,8-tetrahydro-1,6-naphthyridin-3-yl)piperazin-1-yl]methyl]morpholin-4-yl]-[1,2,4]triazolo[1,5-a]pyridine-8-carbonitrile]

- Clearance of Human microsome [1]: 6.15 mL/min/kg
SMILES: C[C@@H]1CN(c2cc(=O)n(C)c3ncccc23)C[C@H](CN2CCN(c3cc4c(cn3)CCNC4)CC2)O1 [Example 103, 1-methyl-4-[(2R,6S)-2-methyl-6-[[4-(5,6,7,8-tetrahydro-2,6-naphthyridin-3-yl)piperazin-1-yl]methyl]morpholin-4-yl]-1,8-naphthyridin-2-one]

- inhibition at 10 min, 10 µM (CYP2D6): 5%
SMILES: Cc1cnc2c(C#N)ccc(N3C[C@H](CN4CCN(c5cc6c(cn5)CCNC6)CC4)O[C@H](C)C3)c2n1 [Example 90, 2-methyl-8-[(2R,6S)-2-methyl-6-[[4-(5,6,7,8-tetrahydro-2,6-naphthyridin-3-yl)piperazin-1-yl]methyl]morpholin-4-yl]quinoxaline-5-carbonitrile]

- inhibition at 10 min, 10 µM (CYP2D6): 14%
SMILES: C[C@@H]1CN(c2ccc(C(F)(F)F)c3nccnc23)C[C@H](CN2CCN(c3cc4c(cn3)CCNC4)CC2)O1 [Example 91, (2R,6S)-2-methyl-6-[[4-(5,6,7,8-tetrahydro-2,6-naphthyridin-3-yl)piperazin-1-yl]methyl]-4-[8-(trifluoromethyl)quinoxalin-5-yl]morpholine]

- Clearance of Human microsome [1]: 6.54 mL/min/kg
SMILES: COc1ccc(N2C[C@H](CN3CCN(c4cc5c(cn4)CCNC5)CC3)O[C@H](C)C2)c2nccnc12 [Example 89, (2R,6S)-4-(8-methoxyquinoxalin-5-yl)-2-methyl-6-[[4-(5,6,7,8-tetrahydro-2,6-naphthyridin-3-yl)piperazin-1-yl]methyl]morpholine]

SMILES: C[C@@H]1CN(c2ccc(C#N)c3ncccc23)C[C@H](CN2CC3COCC(C2)N3c2cnc3c(c2)CNC3)O1 [Example 37, 5-[(2S,6R)-2-[[9-(6,7-dihydro-5H-pyrrolo[3,4-b]pyridin-3-yl)-3-oxa-7,9-diazabicyclo[3.3.1]nonan-7-yl]methyl]-6-methyl-morpholin-4-yl]quinoline-8-carbonitrile]
- Clearance of Human microsome [1]: 6.72 mL/min/kg

SMILES: Cc1nn(C)cc1S(=O)(=O)NC1CCN(C[C@H]2CN(c3ccc(C#N)c4ncccc34)C[C@@H](C)O2)CC1 [ER-894160]
- IC50 (hTLR7): 199 nM
- IC50 (hTLR9): > 10000 nM

SMILES: C[C@@H]1CN(c2ccc(C#N)c3ncccc23)C[C@H](CN2CC[C@@H](NC(=O)c3ccccc3)C2)O1 [ER-894544]
- IC50 (hTLR7): 43 nM
- IC50 (hTLR9): > 6200 nM

- Clearance of Human microsome [1]: 8.54 mL/min/kg
SMILES: C[C@@H]1CN(c2cc(=O)n(C)c3ncccc23)C[C@H](CN2CCN(c3ccc4c(n3)CN[C@@H]4C)CC2)O1 [Example 100, 1-methyl-4-[(2R,6S)-2-methyl-6-[[4-[(5R)-5-methyl-6,7-dihydro-5H-pyrrolo[3,4-b]pyridin-2-yl]piperazin-1-yl]methyl]morpholin-4-yl]-1,8-naphthyridin-2-one]

SMILES: C[C@@H]1CN(c2ccc(C#N)c3ncccc23)C[C@H](CN2CC(NS(=O)(=O)c3ccc(F)cc3)C2)O1 [ER-894155]
- IC50 (hTLR7): 282 nM
- IC50 (hTLR9): > 10000 nM

- Clearance of Human microsome [1]: 6.67 mL/min/kg
SMILES: CCn1c(=O)cc(N2C[C@H](CN3CCN(c4ccc5c(n4)CN[C@@H]5C)CC3)O[C@H](C)C2)c2cccnc21 [Example 101, 1-ethyl-4-[(2R,6S)-2-methyl-6-[[4-[(5R)-5-methyl-6,7-dihydro-5H-pyrrolo[3,4-b]pyridin-2-yl]piperazin-1-yl]methyl]morpholin-4-yl]-1,8-naphthyridin-2-one]
